Data on 24 compounds can be found in US20260325685A1, “Radiopharmaceutical Compositions Targeting Carbonic Anhydrase IX and Uses Thereof” (RayzeBio, Inc., priority 2023, published 2026).

Test [1] has as its target T1, human CA-XII (Homo sapiens, UniProt O43570).
T1 construct: purchased Creative BioMart CA12-261H
The test can be described thus: Surface Plasmon Resonance (SPR) binding kinetics to recombinant human CA-XII (Biacore 8K, single-cycle kinetics, 1:1 binding model). In outline: (§1)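 Recombinant human CA-IX or CA-XII captured on streptavidin chips (1200-1800 RU) in PBS-P+, pH 7.4. Single-cycle kinetics over 9 analyte concentrations (100-0.39 nM) with 1% DMSO, 120 s association, 1200 s dissociation, 25° C. Reference- and DMSO-corrected curves fit to 1:1 model for on/off rates.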
For orientation: Surface plasmon resonance follows binding to a sensor surface in real time, without labels.

Test [2] has as its target T2, human CA-IX (Homo sapiens, UniProt Q16790).
T2 construct: purchased Acro CA9-H82E3
The test can be described thus: Surface Plasmon Resonance (SPR) binding kinetics to recombinant human CA-IX (Biacore 8K, single-cycle kinetics, 1:1 binding model). In outline: as §1

[3] abbreviates: Chelated Metal: Lu-175, 25° C., pH 7.4, read-out: CAXII KD.
Where [4] appears, read: Chelated Metal: Lu-175; SPR, 25° C., pH 7.4; read-out: CAIX KD.
[5] abbreviates: read-out: CAXII KD, Chelated Metal: Lu-175, 25° C., pH 7.4.
The mark [6] stands for this setting: read-out: CAIX KD; Chelated Metal: Lu-175; SPR, 25° C., pH 7.4.

pKd: −log10 of the molar value. Read-outs that look alike come from different tables or passages of the source.

T1 sequence (O43570 25-354): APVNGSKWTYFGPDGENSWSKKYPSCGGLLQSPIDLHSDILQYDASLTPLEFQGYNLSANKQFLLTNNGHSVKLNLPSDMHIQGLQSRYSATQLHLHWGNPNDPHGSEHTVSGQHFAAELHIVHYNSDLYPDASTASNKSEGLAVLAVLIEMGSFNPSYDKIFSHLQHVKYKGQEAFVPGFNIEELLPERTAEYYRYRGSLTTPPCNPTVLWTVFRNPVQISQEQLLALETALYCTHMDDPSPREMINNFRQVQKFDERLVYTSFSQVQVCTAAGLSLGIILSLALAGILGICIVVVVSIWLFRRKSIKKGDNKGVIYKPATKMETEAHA

Take `CC(CCCC(=O)N1CCC(C(N)=O)(C(=O)NCC(=O)NC2(C(=O)NCCn3cc(COc4ccc5nc(S(N)(=O)=O)sc5c4)nn3)CCN(C(=O)CC[C@H](C(=O)O)N3CCN(CC(=O)O)CCN(CC(=O)O)CCN(CC(=O)O)CC3)CC2)CC1)(c1ccc(O)cc1)c1ccc(O)cc1.[Lu+3]` [Compound 127.9]: the pKd was less than 8.00 in test [1] (setting [3]) and greater than 9.00 in test [2] (setting [4]).
For the compound `CC(CCC(=O)N[C@@H](CC(=O)N[C@@H](CC(=O)N1CCN(C(=O)CCOCCOCCOCCOCCOCCOCCOCCOCCNC(=O)CN2CCN(CC(=O)O)CCN(CC(=O)O)CCN(CC(=O)O)CC2)C[C@H]1C(=O)NCCn1cc(C23CC(C(=O)Nc4nnc(S(N)(=O)=O)s4)(C2)C3)nn1)C(=O)O)C(=O)O)(c1ccc(O)cc1)c1ccc(O)cc1.[Lu+3]` [Compound 129], the pKd in test [1] (setting [5]) is less than 8.00; in test [2] (setting [6]), 8.60 to 9.00.
As for `CC(CCCC(=O)N1CCC(CN)(C(=O)NCC(=O)N2CCN(C(=O)CN3CCN(CC(=O)O)CCN(CC(=O)O)CCN(CC(=O)O)CC3)C[C@@H]2C(=O)NCCn2cc(C34CC(C(=O)Nc5nnc(S(N)(=O)=O)s5)(C3)C4)nn2)CC1)(c1ccc(O)cc1)c1ccc(O)cc1.[Lu+3]` [Compound 107.51], the pKd in test [1] (setting [3]) is less than 8.00; in test [2] (setting [4]) it was 8.60 to 9.00.
In the case of `CC1(c2ccc(C(=O)N[C@@H](CC(=O)N[C@@H](CC(=O)N3CCN(C(=O)CN4CCN(CC(=O)O)CCN(CC(=O)O)CCN(CC(=O)O)CC4)C[C@H]3C(=O)NCCn3cc(C45CC(C(=O)Nc6nnc(S(N)(=O)=O)s6)(C4)C5)nn3)C(=O)O)C(=O)O)cc2)CC1.[Lu+3]` [Compound 109.22], the values for the negative logarithm of the Kd (pKd) in test [1] (setting [3]) and in test [2] (setting [4]) were 8.00 to 8.60 and 8.60 to 9.00, respectively.
For `NS(=O)(=O)c1nnc(NC(=O)C23CC(c4cn(CCNC(=O)[C@@H]5CN(C(=O)CN6CCN(CC(=O)O)CCN(CC(=O)O)CCN(CC(=O)O)CC6)CCN5C(=O)C[C@H](NC(=O)C[C@H](NC(=O)Cc5ccc(C6CC6)cc5)C(=O)O)C(=O)O)nn4)(C2)C3)s1` [Compound 109.63], the pKd was 8.00 to 8.60 in test [1] (Chelated Metal: None, 25° C., pH 7.4, read-out: CAXII KD) and greater than 9.00 in test [2] (Chelated Metal: None; SPR, 25° C., pH 7.4; read-out: CAIX KD). Besides, in test [2] (KD ratio CAXII/CAIX; Chelated Metal: None), the “Ratio (CAXII/CAIX)” value was “*** (10 < *** ≤ 50)”.
Take `CC(CCC(=O)N[C@@H](CC(=O)N[C@@H](CC(=O)N1CCN(C(=O)CN2CCN(CC(=O)O)CCN(CC(=O)O)CCN(CC(=O)O)CC2)C[C@H]1C(=O)NCCn1cc(-c2ccc(C(=O)Nc3nnc(S(N)(=O)=O)s3)cc2)nn1)C(=O)O)C(=O)O)(c1ccc(O)cc1)c1ccc(O)cc1.[Lu+3]` [Compound 107.22]: the negative logarithm of the Kd (pKd) in test [1] (setting [3]) was less than 8.00; in test [2] (setting [4]), 8.60 to 9.00.
Turning to `CC(CCCC(=O)N1CCC(C(N)=O)(C(=O)NCC(=O)NC2(C(=O)NCCn3cc(C45CC(c6cn7nc(S(N)(=O)=O)sc7n6)(C4)C5)nn3)CCN(C(=O)CN3CCN(CC(=O)O)CCN(CC(=O)O)CCN(CC(=O)O)CC3)CC2)CC1)(c1ccc(O)cc1)c1ccc(O)cc1.[Lu+3]` [Compound 117.5], the pKd in test [1] (setting [3]) was 8.00 to 8.60; in test [2] (setting [4]), greater than 9.00.
Consider `CC(CCC(=O)N[C@@H](CC(=O)N[C@@H](CC(=O)NC1(CCCCn2cc(CCCC(=O)Nc3nnc(S(N)(=O)=O)s3)nn2)CCN(C(=O)CN2CCN(CC(=O)O)CCN(CC(=O)O)CCN(CC(=O)O)CC2)CC1)C(=O)O)C(=O)O)(c1ccc(O)cc1)c1ccc(O)cc1.[Lu+3]` [Compound 116], for which the pKd is 8.00 to 8.60 in test [1] (setting [5]) and 8.60 to 9.00 in test [2] (setting [6]).
The corresponding values for `CC(C)(CCCC(=O)N1CCC(C(N)=O)(C(=O)NCC(=O)N2CCN(C(=O)CN3CCN(CC(=O)O)CCN(CC(=O)O)CCN(CC(=O)O)CC3)C[C@H]2C(=O)NCCn2cc(C34CC(C(=O)Nc5nnc(S(N)(=O)=O)s5)(C3)C4)nn2)CC1)c1ccc(O)cc1.[Lu+3]` [Compound 133] are less than 8.00 and greater than 9.00.
For the compound `NS(=O)(=O)c1nnc(NC(=O)C23CC(c4cn(CCCC[C@@H](C(=O)NCCOCCOCCNC(=O)CN5CCN(CC(=O)O)CCN(CC(=O)O)CCN(CC(=O)O)CC5)n5cc(C[C@H](NC(=O)C[C@H](NC(=O)c6n[nH]c7ccccc67)C(=O)O)C(=O)O)nn5)nn4)(C2)C3)s1.[Lu+3]` [Compound 101.1], the pKd in test [1] (setting [3]) was 8.00 to 8.60; in test [2] (setting [4]) it was greater than 9.00.
In the case of `NS(=O)(=O)c1nnc(NC(=O)C23CC(c4cn(CCNC(=O)[C@H]5CN(C(=O)CN6CCN(CC(=O)O)CCN(CC(=O)O)CCN(CC(=O)O)CC6)CCN5C(=O)CC[C@H](NC(=O)c5n[nH]c6ccccc56)C(=O)O)nn4)(C2)C3)s1.[Lu+3]` [Compound 107.17], the pKd in test [1] (setting [3]) was 8.60 to 9.00; in test [2] (setting [4]), greater than 9.00.
Take `CC(CCCC(=O)N1CCC(C(N)=O)(C(=O)NCC(=O)NC2(C(=O)N[C@@H](Cn3cc(C45CC(C(=O)Nc6nnc(S(N)(=O)=O)s6)(C4)C5)nn3)C(=O)O)CCN(C(=O)CN3CCN(CC(=O)O)CCN(CC(=O)O)CCN(CC(=O)O)CC3)CC2)CC1)(c1ccc(O)cc1)c1ccc(O)cc1.[Lu+3]` [Compound 134]: the pKd in test [1] (setting [5]) is less than 8.00; in test [2] (setting [6]), greater than 9.00.
As for `CC(CCCC(=O)N1CCC(C(=O)O)(C(=O)NCC(=O)N2CCN(C(=O)CN3CCN(CC(=O)O)CCN(CC(=O)O)CCN(CC(=O)O)CC3)C[C@H]2C(=O)NCCn2cc(C34CCC(C(=O)Nc5nnc(S(N)(=O)=O)s5)(CC3)CC4)nn2)CC1)(c1ccc(O)cc1)c1ccc(O)cc1.[Lu+3]` [Compound 107.9], the negative-log Kd (pKd) in test [1] (setting [3]) is 8.60 to 9.00; in test [2] (setting [4]), greater than 9.00.
In the case of `CC(CCC(=O)N[C@@H](CC(=O)N[C@@H](CC(=O)N[C@@H](CCCCn1cc(C23CCC(C(=O)Nc4nnc(S(N)(=O)=O)s4)(CC2)C3)nn1)C(=O)NCC1(C(=O)O)CCN(C(=O)CN2CCN(CC(=O)O)CCN(CC(=O)O)CCN(CC(=O)O)CC2)CC1)C(=O)O)C(=O)O)(c1ccc(O)cc1)c1ccc(O)cc1.[Lu+3]` [Compound 100.18], the negative logarithm of the Kd (pKd) in test [1] (setting [3]) and in test [2] (setting [4]) was greater than 9.00 in each case.
Consider `CC(CCCC(=O)N1CCC(C(N)=O)(C(=O)NCC(=O)NC2(C(=O)NCCn3nnc(C45CC(C(=O)Nc6nnc(S(N)(=O)=O)s6)(C4)C5)c3C(N)=O)CCN(C(=O)CN3CCN(CC(=O)O)CCN(CC(=O)O)CCN(CC(=O)O)CC3)CC2)CC1)(c1ccc(O)cc1)c1ccc(O)cc1.[Lu+3]` [Compound 136], for which the pKd in test [1] (setting [5]) was less than 8.00; in test [2] (setting [6]), greater than 9.00.
As for `CC(CCCC(=O)N1CCC(C(=O)O)(C(=O)NCC(=O)N2CCN(C(=O)CN3CCN(CC(=O)O)CCN(CC(=O)O)CCN(CC(=O)O)CC3)C[C@@H]2C(=O)N[C@@H](Cn2cc(C34CC(C(=O)Nc5nnc(S(N)(=O)=O)s5)(C3)C4)nn2)C(=O)O)CC1)(c1ccc(O)cc1)c1ccc(O)cc1.[Lu+3]` [Compound 107.23], the pKd in test [1] (setting [3]) is less than 8.00; in test [2] (setting [4]) it was greater than 9.00.
The corresponding values for `CC(CCC(=O)N[C@@H](CC(=O)N[C@@H](CC(=O)N1CCN(C(=O)CN2CCN(CC(=O)O)CCN(CC(=O)O)CCN(CC(=O)O)CC2)C[C@H]1C(=O)NCCn1cc(-c2ccc(C(=O)Nc3nnc(S(N)(=O)=O)s3)c(Cl)c2)nn1)C(=O)O)C(=O)O)(c1ccc(O)cc1)c1ccc(O)cc1.[Lu+3]` [Compound 107.30] are 8.60 to 9.00 and greater than 9.00.
As to `CC(CCC(=O)N[C@@H](CC(=O)N[C@@H](CC(=O)N[C@@H](CCCCn1cc(C23CCC(C(=O)Nc4nnc(S(N)(=O)=O)s4)(CC2)C3)nn1)C(=O)NCCOCCOCCNC(=O)CN1CCN(CC(=O)O)CCN(CC(=O)O)CCN(CC(=O)O)CC1)C(=O)O)C(=O)O)(c1ccc(O)cc1)c1ccc(O)cc1.[Lu+3]` [Compound 100.1], the pKd in test [1] (setting [3]) was 8.60 to 9.00; in test [2] (setting [4]), greater than 9.00.
In the case of `NS(=O)(=O)c1nnc(NC(=O)C23CCC(c4cn(CCNC(=O)[C@@H]5CN(C(=O)CN6CCN(CC(=O)O)CCN(CC(=O)O)CCN(CC(=O)O)CC6)CCN5C(=O)CC[C@H](NC(=O)C[C@H](NC(=O)c5n[nH]c6ccccc56)C(=O)O)C(=O)O)nn4)(CC2)CC3)s1.[Lu+3]` [Compound 109.50], the pKd in test [1] (setting [3]) and in test [2] (setting [4]) was greater than 9.00 in each case.
For `CC(CCCC(=O)N1CCC(C(=O)O)(C(=O)NCC(=O)NC2(C(=O)NCCn3cc(C45CC(C(=O)Nc6nnc(S(N)(=O)=O)s6)(C4)C5)nn3)CCN(C(=O)CN3CCN(CC(=O)O)CCN(CC(=O)O)CCN(CC(=O)O)CC3)CC2)CC1)(c1ccc(O)cc1)c1ccc(O)cc1.[Lu+3]` (single isomer, unassigned) [Compound 117.1], the pKd in test [1] (setting [3]) is less than 8.00; in test [2] (setting [4]), greater than 9.00.
As for `CC(CCC(=O)N[C@H](CC(=O)N[C@H](CC(=O)N1CCN(C(=O)CN2CCN(CC(=O)O)CCN(CC(=O)O)CCN(CC(=O)O)CC2)C[C@H]1C(=O)NCCn1cc(C23CC(C(=O)Nc4nnc(S(N)(=O)=O)s4)(C2)C3)nn1)C(=O)O)C(=O)O)(c1ccc(O)cc1)c1ccc(O)cc1.[Lu+3]` [Compound 107.21], the pKd in test [1] (setting [3]) was less than 8.00; in test [2] (setting [4]) it was 8.60 to 9.00.
On to `CC(CCC(=O)N[C@@H](CC(=O)N[C@@H](CC(=O)NC1(CCCCn2cc(CCC(=O)Nc3nnc(S(N)(=O)=O)s3)nn2)CCN(C(=O)OCCOCCNC(=O)CN2CCN(CC(=O)O)CCN(CC(=O)O)CCN(CC(=O)O)CC2)CC1)C(=O)O)C(=O)O)(c1ccc(O)cc1)c1ccc(O)cc1.[Lu+3]` [Compound 116.4], for which the values for the pKd in test [1] (setting [3]) and in test [2] (setting [4]) were less than 8.00 and 8.00 to 8.60, respectively.
The corresponding values for `NS(=O)(=O)c1nnc(NC(=O)C23CC(c4cn(CCNC(=O)[C@@H]5CN(C(=O)CN6CCN(CC(=O)O)CCN(CC(=O)O)CCN(CC(=O)O)CC6)CCN5C(=O)CNC(=O)C5(C(=O)O)CCN(C(=O)Cc6c[nH]nc6C(F)(F)F)CC5)nn4)(C2)C3)s1.[Lu+3]` [Compound 112.14] are less than 8.00 and 8.00 to 8.60.
Consider `NS(=O)(=O)c1nnc(NC(=O)C23CC(c4cn(CCNC(=O)[C@@H]5CN(C(=O)CN6CCN(CC(=O)O)CCN(CC(=O)O)CCN(CC(=O)O)CC6)CCN5C(=O)C[C@H](Nc5ncc(C(=O)NCCc6ccc(F)c(F)c6)cn5)C(=O)O)nn4)(C2)C3)s1.[Lu+3]` [Compound 111.8], for which the pKd in test [1] (setting [3]) is less than 8.00; in test [2] (setting [4]), 8.00 to 8.60.

As a reminder, the pKd is −log10 of the Kd, conventionally taken in molar units.
